Data: article PMC6733874, “Zebrafish behavioural profiling identifies GABA and serotonin receptor ligands related to sedation and paradoxical excitation” (Nature Communications, 2019)

What was measured:
[1] = test system: zebrafish; format: in vivo; conditions: for enhanced acoustic startle response (eASR) phenotype, in words: larvae, low-volume acoustic stimulus
[2] = test system: human GABAARs (α1β2 and α1β2γ2); format: cell-based; conditions: compound at 20 uM then 5 uM GABA; for Ave Norm FLIPR Score: DMSO = 1
Description: To determine if these compounds targeted human GABAARs, we tested them in a fluorescent imaging plate reader (FLIPR) assay on HEK293 cells transfected with α1β2 and α1β2γ2 human GABAAR subtypes. […]. […] While some of the compounds appeared to function in this assay as negative allosteric modulators (NAMs), reductions in fluorescence were likely due to toxicity-induced cell loss (Fig. 2f, Supplementary Table 5).
We used the FLIPR system (Molecular Devices) to quantify GABA-evoked activity of human GABAARs. We chose a membrane potential dye (Molecular Devices) to measure changes in membrane potentials and stably transfected HEK293 cells that expressed α1, β2 and γ2. Since we observed an increase in GABA-evoked responses when transfected with γ2 transiently, we describe the cells as having a low level of γ-subunit expression, indicating heterogeneity of GABAAR compositions in the cell (α1β2 or α1β2γ2). To assay for direct agonists, fluorescence was subtracted pre- and post compound addition. To assay for PAMs, cells were treated with compound at 20 uM and then with 5 uM GABA.

Row | SMILES | Phenoscore ([1]; zebrafish, in vivo) | other results
1 | COc1cc(Br)c(OC)c2c1[C@H](CN)C2 [TCB-2] | 0.1 | –
2 | CCC(C)N(C)C(=O)c1cc2ccccc2c(-c2ccccc2Cl)n1 (stereo not shown) [PK 11195] | – | enhanced acoustic startle response (eASR) phenotype, in words [1]: caused eASRs in vivo
3 | O=C1CCCN1CC#CCN1CCCC1 [oxotremorine] | – | eASR magnitudes in animals treated with M-current ligands ([1]; zebrafish, in vivo): significantly increased
4 | CCCN(CCC)C1CCc2cccc(O)c2C1 (stereo not shown) [8-HYDROXY-DPAT] | 0.49 | –
5 | Cc1nccn1CC1CCc2c(c3ccccc3n2C)C1=O.Cl (stereo not shown) [Ondansetron Hydrochloride] | 0.13 | –
6 | Cc1cccc(C#Cc2ccccc2)n1 [MPEP] | 0.73 | enhanced acoustic startle response (eASR) phenotype, in words [1]: reproducibly caused eASRs
7 | Nc1ccc(OC(F)(F)F)cc1C(=O)c1ccccc1 [compound 7113584] | – | Ave Norm FLIPR Score [2]: -2.455
8 | CCOC(=O)Nc1sc(C)c(CC)c1C(=O)OCC [compound 5695025] | – | Ave Norm FLIPR Score [2]: 32.27; FLIPR Results ([2]; Positive/Negative): Positive
9 | CN1CC(=O)NC1=NC(=O)Nc1cccc(Cl)c1 [Fenobam] | 0.3 | –
10 | O=C(c1ccccn1)c1cnn2c(-c3ccncc3)ccnc12 [ocinaplon] | – | enhanced acoustic startle response (eASR) phenotype, in words [1]: produced a behavioral profile that resembled the negative
11 | CN(C)CCn1cc(S(=O)(=O)c2cccc(F)c2)c2cccnc21 [WAY 208466] | 0.21 | –
12 | O=C(Nc1c(C(=O)Nc2ccc(Cl)cc2)cnn1-c1ccccc1)c1ccccc1F [compound 5587256] | – | Ave Norm FLIPR Score [2]: -26.37
13 | CCOC(=O)c1cc2c(cn1)[nH]c1ccccc12 [β-CCE] | 0.37 | –
14 | O=C(Nc1ccc(Cl)c(Cl)c1)c1ccc(Cl)cc1Cl [compound 7136301] | 0.42 | –
15 | CN1CCc2cc3c(cc2[C@H]1[C@@H]1OC(=O)c2c1ccc1c2OCO1)OCO3 [bicuculline (+)] | 0.23 | –
16 | COc1ccc2c(c1)c(CCN(C)C)cn2S(=O)(=O)c1ccccc1.O=C(O)C(=O)O [MS 245 OXALATE] | 0.09 | –
17 | CN(C)C/C=C(\c1ccc(Br)cc1)c1cccnc1.Cl.Cl.O [Zimelidine dihydrochloride monohydrate] | 0.16 | –
18 | NC/C=C/C(=O)O [TACA] | 0.07 | –

Row | SMILES | Phenoscore ([1]; zebrafish, in vivo) | other results
19 | CNc1cc(NS(=O)(=O)c2ccc(N)cc2)nc(NC)n1 [Ro 04-6790] | 0.11 | –
20 | C[C@]12CC[C@@H](O)C[C@H]1CC[C@@H]1[C@@H]2CC[C@]2(C)[C@@H](C(=O)CO)CC[C@@H]12 [THDOC, tetrahydrodeoxycorticosterone] | – | phenoscore category ([1]; average phenoscore at highest scoring treatment): intermediate (intermediate phenoscores (0.51 < x < 0.71))
21 | Clc1ccc(CSc2nc3ccccc3[nH]2)cc1 [compound 5551268] | – | Ave Norm FLIPR Score [2]: -1.463
22 | Cc1[nH]c2ccc(Cl)cc2c1C1=CCNCC1.Cl [EMD 386088 HYDROCHLORIDE] | 0.15 | –
23 | O=C(O)/C=C\C(=O)O.c1ccc2nc(N3CCNCC3)ccc2c1 [Quipazine maleate salt] | 0.16 | –
24 | O=S(=O)(Nc1ccc(OCc2ccccc2)cc1)c1ccc2c(c1)OCCO2 [compound 6163607] | – | Ave Norm FLIPR Score [2]: -5.679
25 | CCc1[nH]c2ccc(OC)cc2c1CCN(C)C.O=C(O)C(=O)O [EMDT oxalate] | – | effect on eASRs caused by HTR6 antagonists ([1]; co-treatment, in words): did not suppress eASRs
26 | CN(C)CCCc1cc(C(=O)Nc2ccc(-c3ccncc3)cc2)ccc1O.Cl.Cl [GR 55562 DIHYDROCHLORIDE] | 0.24 | –
27 | CC(N)Cc1c[nH]c2ccc(OCc3cccs3)cc12 (stereo not shown) [BW 723C86] | 0.1 | –
28 | Cc1c(OCc2cccc(-c3ccc(C(=O)O)cc3)c2)cc2c(c1C)C(=O)C(C1CCCC1)C2 (stereo not shown) [Biphenylindanone A] | 0.11 | –
29 | COc1ccc(S(=O)(=O)Nc2cc(Cl)cc(Cl)c2OC)cc1N1CCNCC1.Cl [SB 399885 hydrochloride] | 0.16 | –
30 | CCc1cc2c(=O)c(-c3ccccc3Cl)coc2cc1O [compound 7014338] | – | Ave Norm FLIPR Score [2]: -6.27
31 | O=C([O-])[C@H]1CCCC[C@H]1C(=O)Nc1cc(Cl)cc(Cl)c1.[Na+] [VU 0155041 Na Salt] | 0.11 | –
32 | COc1ccccc1-c1coc2cc(OC(=O)c3cccs3)ccc2c1=O [compound 6645327] | – | Ave Norm FLIPR Score [2]: -4.734
33 | NC(CCP(=O)(O)O)C(=O)O [L-AP4] | 0.1 | –
34 | CCN(Cc1ccccc1)C(=O)Cn1c(=O)n(C)c2cnc(-c3ccccc3)nc21 [AC 5216] | – | enhanced acoustic startle response (eASR) phenotype, in words [1]: caused eASRs in vivo
35 | Cc1[nH]c2ccc(Cl)cc2c1CCN(C)C.O=C(O)C(=O)O [ST 1936 OXALATE] | 0.09 | –
